The values below come from patent US12275745B2, “Therapeutic compounds and methods of use” (Genentech, Inc., priority 2021, dated 2025).

The target of one experiment is TEAD1 (Homo sapiens, UniProt P28347). The experiment in a line: TR-FRET (Lipid HTRF) TEAD lipid pocket probe displacement assay, TEAD1. It is filed as binding. The following applies: His-tagged TEAD1, biotinylated lipid pocket probe, 4 hours. On the technique in general: TR-FRET usually uses a lanthanide donor and a delayed reading to cut background.
Chain of TEAD1 (P28347 whole entry, species assumed): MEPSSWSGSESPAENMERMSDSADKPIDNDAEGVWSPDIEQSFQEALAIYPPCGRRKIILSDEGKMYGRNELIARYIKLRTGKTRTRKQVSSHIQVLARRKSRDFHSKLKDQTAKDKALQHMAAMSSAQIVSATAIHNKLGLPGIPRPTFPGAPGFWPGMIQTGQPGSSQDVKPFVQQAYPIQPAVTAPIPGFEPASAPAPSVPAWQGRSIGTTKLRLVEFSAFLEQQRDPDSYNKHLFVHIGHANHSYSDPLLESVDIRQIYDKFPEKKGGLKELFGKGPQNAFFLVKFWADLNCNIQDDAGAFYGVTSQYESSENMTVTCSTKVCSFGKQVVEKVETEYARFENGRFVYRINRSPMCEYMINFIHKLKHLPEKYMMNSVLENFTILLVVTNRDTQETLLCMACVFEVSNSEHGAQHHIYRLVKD
The next experiment concerns the target TEAD3 (Homo sapiens, UniProt Q99594). The experiment is described as follows: TR-FRET (Lipid HTRF) TEAD lipid pocket probe displacement assay, TEAD3. It is filed as binding. The following applies: His-tagged TEAD3, biotinylated lipid pocket probe, 4 hours.
For the next experiment, the target named is TEAD4 (Homo sapiens, UniProt Q15561). The experiment in a line: TR-FRET (Lipid HTRF) TEAD lipid pocket probe displacement assay, TEAD4. The note with it: His-tagged TEAD4, biotinylated lipid pocket probe, 4 hours. It is filed as binding.
Chain of TEAD4 (Q15561 whole entry, species assumed): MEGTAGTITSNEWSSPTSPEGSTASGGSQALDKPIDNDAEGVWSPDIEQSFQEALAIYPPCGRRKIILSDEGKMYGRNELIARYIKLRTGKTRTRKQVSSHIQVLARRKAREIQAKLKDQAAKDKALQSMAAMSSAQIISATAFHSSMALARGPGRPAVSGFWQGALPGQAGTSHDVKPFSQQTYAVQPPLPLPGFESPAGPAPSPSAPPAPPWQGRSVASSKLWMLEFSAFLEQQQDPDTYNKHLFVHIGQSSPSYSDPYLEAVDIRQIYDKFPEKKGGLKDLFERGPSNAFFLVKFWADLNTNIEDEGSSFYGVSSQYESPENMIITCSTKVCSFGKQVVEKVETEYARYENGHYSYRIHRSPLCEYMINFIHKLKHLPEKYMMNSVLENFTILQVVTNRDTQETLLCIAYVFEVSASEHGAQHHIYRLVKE
Another experiment has as its target TEAD2 (Homo sapiens, UniProt Q15562). The experiment in a line: biochemical.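 Further: TR-FRET competition assay with His-tagged TEAD protein and a biotinylated lipid pocket probe, where probe displacement by compound lowers the signal.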

In general, IC50 refers to the midpoint of a concentration-inhibition curve.

Chain of TEAD2 (Q15562 whole entry, species assumed): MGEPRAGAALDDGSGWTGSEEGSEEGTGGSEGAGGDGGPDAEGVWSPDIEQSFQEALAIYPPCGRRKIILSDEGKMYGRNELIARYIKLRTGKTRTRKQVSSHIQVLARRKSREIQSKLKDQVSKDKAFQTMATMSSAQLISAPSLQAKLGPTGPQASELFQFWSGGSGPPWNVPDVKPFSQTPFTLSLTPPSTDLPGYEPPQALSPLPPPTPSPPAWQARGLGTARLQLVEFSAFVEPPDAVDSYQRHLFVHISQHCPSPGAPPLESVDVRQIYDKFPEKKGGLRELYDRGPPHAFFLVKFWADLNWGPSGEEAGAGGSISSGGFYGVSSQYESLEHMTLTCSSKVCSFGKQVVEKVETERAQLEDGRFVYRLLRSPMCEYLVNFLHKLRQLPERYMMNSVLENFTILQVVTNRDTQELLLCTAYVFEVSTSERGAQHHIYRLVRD
Chain of TEAD3 (Q99594 whole entry, species assumed): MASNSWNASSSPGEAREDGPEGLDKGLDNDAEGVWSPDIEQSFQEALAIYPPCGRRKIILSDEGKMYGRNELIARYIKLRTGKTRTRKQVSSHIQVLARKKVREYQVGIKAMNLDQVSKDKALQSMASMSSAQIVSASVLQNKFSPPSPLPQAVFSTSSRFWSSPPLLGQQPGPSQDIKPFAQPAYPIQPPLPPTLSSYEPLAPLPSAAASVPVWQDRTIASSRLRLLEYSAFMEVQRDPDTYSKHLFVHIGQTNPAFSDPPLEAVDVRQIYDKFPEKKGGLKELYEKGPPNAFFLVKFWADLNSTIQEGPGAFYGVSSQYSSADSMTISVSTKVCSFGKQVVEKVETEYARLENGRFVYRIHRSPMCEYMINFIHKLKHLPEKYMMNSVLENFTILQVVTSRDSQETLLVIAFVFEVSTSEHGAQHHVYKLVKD
Description for TEAD3: His-tagged TEAD proteins are pre-incubated with TEAD project compounds for 30 minutes or 4 hours at room temperature. Biotinylated lipid pocket probes are then added to the TEAD/Compound mixture and incubated for 60 minutes at room temperature. The lipid pocket probe competes with the test compound for the TEAD lipid pocket until equilibrium is reached. After 60 minutes, Europium labelled anti-His (Perkin Elmer #AD0110) and XL665 labelled streptavidin (CIS Bio 610SAXAC) are added to the TEAD/test compound/lipid pocket mixture and incubated for 30 minutes or 4 hours. TR-FRET values are then measured using an EnVision multi-label plate reader (Perkin Elmer Cat #2104-001 0A.) If the lipid pocket probe binds to TEAD as expected, a TR-FRET signal results from the proximity of anti-His Eu and XL665. If a TEAD lipid pocket binder such as binds and displaces the lipid pocket probe, the disruption of the TEAD:probe interaction results in a decrease in TR-FRET signal. The potency of compounds as TEAD lipid pocket binders is determined by IC50 value generated using a non-linear 4 parameter curve fit.

With `C=CC(=O)NCc1cc(-c2ccc(S(F)(F)(F)(F)F)cc2)c2c(c1[C@@H](O)CO)CCO2` (stereo in doubt) [Compound 97, N-[[7-[4-(pentafluoro-6-sulfanyl)phenyl]-4-[rac-(1S)-1,2-dihydroxyethyl]-2,3-dihydrobenzofuran-5-yl]methyl]prop-2-enamide], the IC50 was 27 nM at TEAD1, 590 nM at TEAD3, 18 nM at TEAD4 and 19 nM against TEAD2.

Consider `C=CC(=O)NCc1cc(-c2ccc(OC(F)(F)F)cc2)c2nccn2c1CO` [Compound 5, N-((5-(hydroxymethyl)-8-(4-(trifluoromethoxy)phenyl)imidazo[1,2-a]pyridin-6-yl)methyl)acrylamide], for which the IC50 on TEAD1 amounted to 127 nM; on TEAD3 it was 290 nM; on TEAD4 it was 270 nM; on TEAD2 it was 227 nM.

On to `C=CC(=O)NCc1cc(-c2ccc(OC(F)(F)F)cc2)c2ncccc2c1[C@H](O)CO` (single isomer, unassigned) [Compound 47], for which the IC50 amounted to 22 nM on TEAD1, 175 nM at TEAD3, 135 nM at TEAD4 and 11.5 nM against TEAD2.

In the case of `C=CC(=O)NCc1cc(-c2ccc(OC(F)(F)F)cc2)c2ncn(C)c2c1[C@H](C)O` (single isomer, unassigned) [Compound 139], the IC50 amounted to 160 nM on TEAD1, 380 nM at TEAD3, 100 nM at TEAD4 and 6.8 nM against TEAD2.

Regarding `C=CC(=O)N(C)Cc1cc(-c2ccc(OC(F)(F)F)cc2)c2c(c1[C@@H](O)CO)CCO2` (single isomer, unassigned) [Compound 56], the IC50 is 48 nM on TEAD1, 99 nM at TEAD3, 13 nM on TEAD4 and 35 nM against TEAD2.

As to `C=CC(=O)NCc1nc(C23CC(C(C)C)(C2)C3)c2ncsc2n1` [Compound 102, N-((7-(3-Isopropylbicyclo[1.1.1]pentan-1-yl)thiazolo[5,4-d]pyrimidin-5-yl)methyl)acrylamide], the IC50 on TEAD1 is 120 nM; at TEAD3 it was 110 nM; at TEAD4, 23 nM; on TEAD2, 310 nM.

On to `C=CC(=O)N(C)Cc1cc(-c2ccc(OC(F)(F)F)cc2)c2nccn2c1` [Compound 38, N-methyl-N-[[8-[4-(trifluoromethoxy)phenyl]imidazo[1,2-a]pyridin-6-yl]methyl]prop-2-enamide], for which the IC50 at TEAD1 is 20 nM; at TEAD3, 26 nM; on TEAD4, 6.8 nM; at TEAD2, 33 nM.

Consider `C=CC(=O)NCc1cc(-c2ccc(OC(F)(F)F)cc2)c2nccnc2c1CO` [Compound 84, N-((5-(Hydroxymethyl)-8-(4-(trifluoromethoxy)phenyl)quinoxalin-6-yl)methyl)acrylamide], for which the IC50 on TEAD1 amounted to 26.7 nM; at TEAD3 it was 38.7 nM; at TEAD4 it was 48 nM; against TEAD2 it was 21 nM.

Turning to `C=CC(=O)NCc1cc(-c2ccc(OC(F)(F)F)nc2)c2ncoc2c1CO` [Compound 114, N-((7-(Hydroxymethyl)-4-(6-(trifluoromethoxy)pyridin-3-yl)benzo[d]oxazol-6-yl)methyl)acrylamide], the IC50 on TEAD1 came out at 480 nM; on TEAD3, 700 nM; on TEAD4, 740 nM; on TEAD2 it was 350 nM.

On to `C=CC(=O)NCc1nc(-c2ccc(OC(F)(F)F)cc2)c2ncn(C)c2c1CO` [Compound 73, N-((7-(hydroxymethyl)-1-methyl-4-(4-(trifluoromethoxy)phenyl)-1H-imidazo[4,5-c]pyridin-6-yl)methyl)acrylamide], for which the IC50 at TEAD1 is 58 nM; on TEAD3 it was 220 nM; at TEAD4, 39 nM; against TEAD2 it was 40 nM.

In the case of `C=CC(=O)N(C)Cc1cc(-c2ccc(OC(F)(F)F)cc2)c2c(c1[C@H](O)CO)CCO2` (single isomer, unassigned) [Compound 55], the IC50 on TEAD1 was 20 nM; on TEAD3, 240 nM; on TEAD4 it was 7.2 nM; on TEAD2, 4.4 nM.

For the molecule `C=CC(=O)NCc1cc(-c2ccc(OC(F)(F)F)cc2)c2ncccc2c1CO` [Compound 50, N-[[5-(hydroxymethyl)-8-[4-(trifluoromethoxy)phenyl]-6-quinolyl]methyl]prop-2-enamide], the IC50 amounted to 12 nM on TEAD1, 37 nM at TEAD3, 34 nM at TEAD4 and 11 nM at TEAD2.

As for `C=CC(=O)N(C)Cc1cc(-c2ccc(OC(F)(F)F)cc2)c2ncccc2c1[C@H](O)CO` (single isomer, unassigned) [Compound 51], the IC50 on TEAD1 worked out at 19 nM; at TEAD3 it was 110 nM; at TEAD4, 20 nM; against TEAD2, 12 nM.

Turning to `C=CC(=O)NCc1cc(-c2ccc(C(F)(F)F)cc2)c2ncoc2c1[C@@H](O)CO` (single isomer, unassigned) [Compound 110], the IC50 at TEAD1 turned out to be 140 nM; at TEAD3, 970 nM; on TEAD4, 260 nM; at TEAD2, 47 nM.

Consider `C=CC(=O)NCc1cc(-c2ccc(OC(F)(F)F)cc2)c2ncccc2c1C#N` [Compound 16, N-[[5-cyano-8-[4-(trifluoromethoxy)phenyl]-6-quinolyl]methyl]prop-2-enamide], for which the IC50 on TEAD1 was 24 nM; at TEAD3 it was 37 nM; on TEAD4, 37 nM; at TEAD2, 51 nM.

For `C=CC(=O)NCc1nc(N2CCC(C(F)(F)F)CC2)c2ncn(C)c2n1` [Compound 130, N-((9-Methyl-6-(4-(trifluoromethyl)piperidin-1-yl)-9H-purin-2-yl)methyl)acrylamide], the IC50 at TEAD1 stood at 410 nM; at TEAD3, 440 nM; at TEAD4 it was 140 nM; against TEAD2 it was 1000 nM.

With `C=C(F)C(=O)N1CC(n2cc(-c3ccc(OC(F)(F)F)cc3)c3ncn(C)c3c2=O)C1` [Compound 136, 5-(1-(2-Fluoroacryloyl)azetidin-3-yl)-3-methyl-7-(4-(trifluoromethoxy)phenyl)-3,5-dihydro-4H-imidazo[4,5-c]pyridin-4-one], the IC50 at TEAD1 was 18 nM; on TEAD3 it was 47 nM; at TEAD4 it was 12 nM; at TEAD2, 30 nM.

Take `C=CC(=O)NCc1cc(-c2ccc(OC(F)(F)F)cc2)c2nccnc2c1[C@H](C)O` (single isomer, unassigned) [Compound 83]: the IC50 was found to be 44 nM at TEAD1, 190 nM on TEAD3, 95 nM on TEAD4 and 6 nM at TEAD2.

As to `C=CC(=O)NCc1nc(-c2ccc(OC(F)(F)F)cc2)nc2c1ncn2C` [Compound 133, N-((9-Methyl-2-(4-(trifluoromethoxy)phenyl)-9H-purin-6-yl)methyl)acrylamide], the IC50 at TEAD1 is 52 nM; on TEAD3 it was 420 nM; at TEAD4, 28 nM; at TEAD2, 360 nM.

Consider `C=CC(=O)NCc1nc(-c2ccc(OC(F)(F)F)cc2)c2ncn(C)c2n1` [Compound 69, N-[[9-methyl-6-[4-(trifluoromethoxy)phenyl]purin-2-yl]methyl]prop-2-enamide], for which the IC50 was found to be 40 nM at TEAD1, 97 nM at TEAD3, 7.5 nM on TEAD4 and 100 nM on TEAD2.
